The source made the active and inactive calls. No stated cut-off is given here; in the data, actives have a measured IC50 and inactives only a lower limit.
target: Envelope glycoprotein gp160 (Human immunodeficiency virus 1, UniProt Q6QLK5); assay: inhibitors of HIV fusion peptide binding, primary screen, biochemical, uHTS, fluorescence dequenching (AID 1986)
Sequence (Q6QLK5 whole entry, the tested form may be a part): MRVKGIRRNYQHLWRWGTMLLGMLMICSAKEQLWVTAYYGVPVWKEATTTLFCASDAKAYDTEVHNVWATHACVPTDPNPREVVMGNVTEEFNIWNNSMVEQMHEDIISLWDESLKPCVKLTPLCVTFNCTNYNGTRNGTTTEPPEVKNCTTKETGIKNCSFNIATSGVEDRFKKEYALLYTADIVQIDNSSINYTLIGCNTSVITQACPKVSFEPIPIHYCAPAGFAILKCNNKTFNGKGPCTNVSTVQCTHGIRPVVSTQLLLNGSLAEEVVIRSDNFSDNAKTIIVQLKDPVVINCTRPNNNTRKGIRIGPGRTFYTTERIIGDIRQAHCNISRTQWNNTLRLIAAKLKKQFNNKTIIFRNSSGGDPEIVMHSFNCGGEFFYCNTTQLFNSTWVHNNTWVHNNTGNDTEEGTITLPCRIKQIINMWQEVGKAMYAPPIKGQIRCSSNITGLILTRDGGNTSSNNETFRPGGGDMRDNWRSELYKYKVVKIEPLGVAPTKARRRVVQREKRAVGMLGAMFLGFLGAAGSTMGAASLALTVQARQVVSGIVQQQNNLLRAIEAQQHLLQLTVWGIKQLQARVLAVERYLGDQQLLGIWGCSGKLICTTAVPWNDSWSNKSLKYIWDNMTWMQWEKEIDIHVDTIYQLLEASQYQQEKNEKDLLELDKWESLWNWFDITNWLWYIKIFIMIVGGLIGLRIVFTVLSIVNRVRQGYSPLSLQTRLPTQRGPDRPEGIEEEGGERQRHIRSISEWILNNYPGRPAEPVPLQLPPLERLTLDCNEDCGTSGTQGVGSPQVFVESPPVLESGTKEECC

SMILES	IC50
Cc1ccc(S(=O)(=O)NC2=NC(=O)/C(=C/c3cc([N+](=O)[O-])ccc3O)S2)cc1	13.5 µM (active)
O=C(Nc1ccc(Br)cc1C(=O)O)c1ccc2c(c1)C(=O)N(Cc1ccccc1)C2=O	13.5 µM (active)
CCc1nnc(NS(=O)(=O)c2ccc(N/C=C(\C=O)c3nc4cc(Cl)ccc4o3)cc2)s1	19.7 µM (active)
Cc1cc(/C=c2\sc3nc4ccccc4n3c2=O)c(C)n1-c1ccc(C(=O)O)cc1	25.8 µM (active)
